Tests used:
[1] = system: apo 15N-labeled REV-ERBβ LBD; assay: NMR structural footprinting, 2D [1H,15N]-TROSY-HSQC titration, apo LBD; format: binding, human; conditions: apo LBD (200 μM), 298 K, 20 mM Hepes pH 7.4, 50 mM NaCl, 0.5 mM EDTA
From the text: To support our ITC results, we performed solution NMR structural footprinting by titrating NCoR ID1 or ID2 peptide into ^15N-labeled REV-ERBβ LBD. For this analysis, we used backbone NMR chemical shift assignments that we previously reported for apo LBD ([18]) and collected three-dimensional (3D) NMR data to obtain backbone NMR chemical shift assignments for heme-bound LBD (fig. S4). […] To qualitatively assess the strength of each interaction, we analyzed the exchange regime of NMR chemical shift changes on the NMR time scale. […]
To generate heme-bound protein, 1.25 molar equivalents of heme prepared in 0.2 M NaOH as a 50 mM stock were added to ^15N-labeled REV-ERBβ LBD (200 μM) or ^2H-,^15N-,^13C-labeled REV-ERBβ LBD (1 mM) in Hepes buffer [20 mM Hepes (pH 7.4), 50 mM NaCl, and 0.5 mM EDTA]. NMR data were collected at 298 K on a Bruker 700-MHz NMR system equipped with a QCI CryoProbe, processed using NMRFx ([40]), and analyzed using NMRViewJ ([41]). […] 2D [^1H,^15N]-TROSY-HSQC data were collected for heme-bound ^15N-labeled REV-ERBβ LBD at 298 K with addition of NCoR ID1 or ID2 peptides prepared as 50 mM stock in DMSO and analyzed in NMRViewJ. […]

REV-ERBβ LBD / NCoR RID = assay: Chemical cross-linking mass spectrometry (XL-MS); format: binding; conditions: apo LBD and heme-bound LBD ± RID; DSSO
Description: Apo or heme-bound REV-ERBβ LBD and NCoR RID protein samples were cross-linked in Hepes gel filtration buffer [25 mM Hepes (pH 7.5) at room temperature, 50 mM NaCl, and 0.5 mM TCEP]. Non–cross-linked negative controls were generated using the same procedure without the addition of DSSO (Thermo Fisher Scientific). Samples included 4 μM apo LBD with or without 2 μM RID and 4 μM heme-bound LBD with or without 2 μM RID; complexes were preincubated 1 hour on ice. Reactions were initiated by spiking DSSO in DMSO at a final concentration of 600 μM in 50-μl solutions. The final molar ratio of cross-linker:protein was 100:1. The reactions were incubated at 25°C for 45 min before being quenched by the addition of tris (pH 8.0) to a final concentration of 50 mM. Each cross-link reaction was done in triplicate, and the reaction replicates were pooled after quenching. Samples (10 μl) were loaded for SDS-PAGE analysis with Coomassie staining to confirm the presence of cross-linked protein. The remaining cross-linked and non–cross-linked samples were then acetone-precipitated at −20°C overnight, and the protein was pelleted by centrifugation at 16,000 relative centrifugal force (rcf) for 5 min at 4°C. After decanting, the pellets were dried for 15 min at room temperature before being resuspended in 12.5 μl of resuspension buffer [50 mM ammonium bicarbonate and 8 M urea (pH 8.0)]. […]

| Molecule | NMR exchange regime on peptide titration [1] | effect of RID on LBD-LBD cross-links (REV-ERBβ LBD / NCoR RID) |
| --- | --- | --- |
| CC[C@H](C)[C@H](NC(=O)[C@H](CC(=O)O)NC(=O)[C@H](CCC(=O)O)NC(=O)[C@H](CC(C)C)NC(=O)CNC(=O)[C@H](CC(C)C)NC(=O)[C@H](CC(N)=O)NC(=O)[C@H](CO)NC(=O)[C@H](C)NC(=O)[C@@H]1CCCN1C(=O)[C@H](CC(=O)O)NC(C)=O)C(=O)N[C@H](C(=O)N[C@@H](CCCNC(=N)N)C(=O)N[C@@H](CCCCN)C(=O)N[C@@H](C)C(=O)N[C@@H](CC(C)C)C(=O)N[C@@H](CCSC)C(=O)NCC(=O)N[C@@H](CO)C(=O)N[C@@H](Cc1ccccc1)C(=O)N[C@@H](CC(=O)O)C(=O)N[C@@H](CC(=O)O)C(=O)N[C@@H](CCCCN)C(N)=O)[C@@H](C)CC [NCoR ID2 peptide] | fast | – |
| Ac-RTHRLITLADHICQIITQDFARN-NH2 [NCoR ID1 peptide] | slow | – |
| WT RID: mouse NCoR RID (residues 1942 to 2208 in the X50 splice variant) (protein, UniProt Q60974 1942-2208, looked up, fragment, X50 splice variant) TITAANFIDVIITRQIASDKDARERGSQSSDSSSSLSSHRYETASDAIEVISPASSPAPPQEKPQAYQPDMVKANQAENESTRQYEGPLHHYRSQQESPSPQQQPPLPPSSQSEGMGQVPRTHRLITLADHICQIITQDFARNQVPSQASTSTFQTSPSALSSTPVRTKTSSRYSPESQSQTVLHPRPGPRVSPENLVDKSRGSRPGKSPERSHIPSEPYEPISPPQGPAVHEKQDSMLLLSQRGVDPAEQRSDSRSPGSISYLPSF | – | enhanced LBD-LBD cross-links |

Reference: PMC7840129, “Structural basis for heme-dependent NCoR binding to the transcriptional repressor REV-ERBβ” (Science Advances, 2021)
